≈ marks a conversion by molar mass, not a printed value. Where “and” joins values, the source holds several entries; their conditions need not be identical. Equal values may be shown once. Read-outs that look alike come from different tables or passages of the source. Marks after values point to notes of the source that are not given here.
Experiments:
[1] = tested on: Cryptococcus gattii (clinical isolate); assay: MIC, EUCAST; type: cell-based; settings: 1 strain
[2] = tested on: Mucor circinelloides (ATCC 8542); assay: MIC, CLSI; type: cell-based; settings: ATCC8542, 1 strain
[3] = tested on: A. fumigatus; assay: A. fumigatus sterol analysis by GC-MS; type: cell-based, Aspergillus fumigatus; settings: 2 h
Description: A working suspension of A. fumigatus spores was prepared in filter-sterilized MOPS-RPMI 1640 (RPMI 1640 medium containing 2 mM L-glutamine, 2% glucose, and 0.165 M MOPS, buffered to pH 7 with NaOH) to a final concentration of 8 × 10^6 spores ml^-1. […] Samples for baseline determinations were collected by scraping, pelleted by centrifugation at 2,000 rpm for 5 min, and stored at -80°C. Test compounds or DMSO (50 μl) was added to the remaining dishes, which were subsequently gently rocked by hand to disperse the compounds. […] Samples were collected and processed as described above. […] These samples were prepared in the laboratory at Pulmocide Ltd. and sent to the laboratory at the Centre for Cytochrome P450 Biodiversity, Institute of Life Science, […] University Medical School, for experimentation. Nonsaponifiable lipids were extracted as previously reported ([29]) and were derivatized with 0.1 ml N,O-bis(trimethylsilyl)trifluoroacetamide:trimethylchlorosilane (99:1) and 0.3 ml anhydrous pyridine (2 h at 80°C) prior to analysis by gas chromatography-mass spectrometry ([38]). Sterol composition was calculated using peak areas from the gas chromatograms, and the mass fragmentation patterns compared to known standards were used to confirm sterol identity. The sterol contents of A. fumigatus (basal) and treated A. fumigatus (treated with either DMSO, posaconazole, or PC945) were determined.

[4] = tested on: Aspergillus carbonarius (ATCC 8740); assay: MIC, CLSI; type: cell-based; settings: ATCC8740, 1 strain, CLSI, read-out: MIC
[5] = tested on: Aspergillus terreus (AT49, AT7130); assay: MIC, EUCAST; type: cell-based; settings: 2 strains, EUCAST, mean isolate MIC, read-out: MIC
[6] = tested on: Rhizomucor pusillus (ATCC 16458); assay: MIC, CLSI; type: cell-based; settings: ATCC16458, 1 strain
[7] = tested on: Chaetomium globosum (ATCC 44699); assay: MIC, CLSI; type: cell-based; settings: ATCC44699, 1 strain
[8] = tested on: Aspergillus flavus (AFL8, NRRC3357); assay: MIC, EUCAST; type: cell-based; settings: 2 strains, EUCAST, mean isolate MIC, read-out: MIC
[9] = tested on: Cladosporium argillaceum (ATCC 38013); assay: MIC, CLSI; type: cell-based; settings: Rhizocladosporium argillaceum, ATCC38013, 1 strain
[10] = tested on: Candida albicans (20240.047, ATCC 10231); assay: MIC, CLSI; type: cell-based; settings: ATCC10231, 2 strains, CLSI, mean isolate MIC, read-out: MIC (the MIC given is the MIC50)
[11] = tested on: A. fumigatus hyphae (NCPF2010)
Description: The persistence of action of test agents was calculated for A. fumigatus hyphae (NCPF2010). […] The plates were incubated for exactly 20 min at 35°C and 5% CO2. After the incubation time had elapsed, all wells on the designated washout plate were aspirated, and growth medium (100 μl/well) was added across the plate. […] Resazurin (0.04%; diluted in growth medium) was added to all wells of both nonwashout and washout plates (5 μl/well) to give a final concentration of 0.002% resazurin. The plates were incubated at 35°C and 5% CO2 for 16 h. […] The percent inhibition for each well was calculated, and the IC50 was calculated from the concentration-response curve generated for each test compound by use of a four-parameter logistic equation (Dotmatics, Bishops Stortford, United Kingdom).

[12] = tested on: A. fumigatus (NCPF2010); assay: A. fumigatus cell-based ergosterol assay; parameters: species or system Aspergillus fumigatus; settings: for IC50: Aspergillus fumigatus, NCPF2010, 24 h, normalized by crystal violet, read-out: IC50, inhibition of ergosterol production
Description: After incubation for 24 h at 35°C, medium was removed from all wells and replaced with reaction buffer (Amplex red cholesterol assay kit; Thermo Fisher) and Amplex red solution. Plates were incubated for 30 min at 37°C, protected from light, after which fluorescence was quantified using a spectrophotometer. Medium was removed from all wells and replaced with crystal violet solution (1% [vol/vol]), and plates were incubated at room temperature on a shaker for 30 min. Plates were washed three times with phosphate-buffered saline (PBS), and sodium dodecyl sulfate solution (0.1% [vol/vol]) was added across the plate to lyse the cells. After incubation at room temperature for 1 h, the absorbance was measured by determining the OD590 by use of a spectrophotometer.

[13] = tested on: Gibberella zeae (Fusarium graminearum) (ATCC 16106); assay: microbe, parasite or virus in culture; type: cell-based; settings: ATCC16106
[14] = tested on: Aureobasidium pullulans (ATCC 9348); assay: MIC, CLSI; type: cell-based; settings: ATCC9348, 1 strain
[15] = tested on: Penicillium citrinum (ATCC 9849); assay: MIC, CLSI; type: cell-based; settings: ATCC9849, 1 strain
[16] = tested on: Candida glabrata (ATCC 36583, R363); assay: MIC, CLSI; type: cell-based; settings: Nakaseomyces glabratus, ATCC36583; 2 strains, CLSI, mean isolate MIC; read-out: MIC (the MIC given is the MIC50)
[17] = tested on: Trichophyton rubrum (ATCC 10218); assay: MIC, CLSI; type: cell-based; settings: ATCC10218, 1 strain
[18] = tested on: Aspergillus flavus (ATCC 204304); assay: MIC, CLSI; type: cell-based; settings: ATCC204304, 1 strain, CLSI, read-out: MIC
[19] = tested on: Aspergillus niger (ATCC 1015); assay: MIC, EUCAST; type: cell-based; settings: ATCC1015, 1 strain, EUCAST, read-out: MIC
[20] = tested on: Lichtheimia corymbifera (ATCC 7909); assay: MIC, CLSI; type: cell-based; settings: ATCC7909, 1 strain
[21] = tested on: A. fumigatus ATCC 204305; assay: MIC with and without BSA supplementation, quality control strain; settings: Aspergillus fumigatus
Description: (§1) Conidia were added across the plate to a final concentration of 1 × 10^5 ml^−1. […] Determination of antifungal activity against 50 A. fumigatus clinical isolates from St. Louis Hospital (Paris, France) was performed with 96-well plates, using the modified EUCAST method in the presence of 0.5% BSA as described above. Antifungal susceptibility testing of 46 A. fumigatus isolates (obtained from the NW England Mycology Reference Centre) was performed by Evotec UK Ltd. (Manchester, United Kingdom) according to EUCAST guidelines.

[22] = tested on: 96 clinically isolated A. fumigatus strains; assay: MIC against 96 clinically isolated strains (EUCAST, visual)
Description: as §1

[23] = 96 clinical isolates, determined visually
[24] = Aspergillus fumigatus, read-out: MIC, Geometric mean
[25] = Aspergillus fumigatus, read-out: MIC, Mode

Structure (SMILES): Cc1cc(N2CCN(c3ccc(C(=O)Nc4ccc(F)cc4)cc3)CC2)ccc1OC[C@@H]1CO[C@@](Cn2cncn2)(c2ccc(F)cc2F)C1 [PC945, 4-[4-(4-{[(3R,5R)-5-(2,4-difluorophenyl)-5-(1H-1,2,4-triazol-1-ylmethyl)oxolan-3-yl]methoxy}-3-methylphenyl)piperazin-1-yl]-N-(4-fluorophenyl)benzamide]
- MIC [1]: 0.25 µg/mL (≈ 0.366 µM)
- MIC [2]: > 8 µg/mL
- Sterol content in cells, Eburicol ([3]; 0.0001 μg/ml): 0%
- Sterol content in cells, Ergost-5,7-dienol ([3]; 0.0001 μg/ml): 4.1%
- Sterol content in cells, Ergosterol ([3]; 0.0001 μg/ml): 95.9%
- Sterol content in cells, Lanosterol ([3]; 0.0001 μg/ml): 0%
- Sterol content in cells, Eburicol ([3]; 0.001 μg/ml): 2.7%
- Sterol content in cells, Ergost-5,7-dienol ([3]; 0.001 μg/ml): 2.5%
- Sterol content in cells, Ergosterol ([3]; 0.001 μg/ml): 94.7%
- Sterol content in cells, Lanosterol ([3]; 0.001 μg/ml): 0%
- Sterol content in cells, Eburicol ([3]; 0.01 μg/ml): 6.5%
- Sterol content in cells, Ergost-5,7-dienol ([3]; 0.01 μg/ml): 3.3%
- Sterol content in cells, Ergosterol ([3]; 0.01 μg/ml): 86.7%
- Sterol content in cells, Lanosterol ([3]; 0.01 μg/ml): 3.6%
- Sterol content in cells, Eburicol ([3]; 0.1 μg/ml): 13.2%
- Sterol content in cells, Ergost-5,7-dienol ([3]; 0.1 μg/ml): 0%
- Sterol content in cells, Ergosterol ([3]; 0.1 μg/ml): 80.6%
- Sterol content in cells, Lanosterol ([3]; 0.1 μg/ml): 6.2%
- Sterol content in cells, Eburicol ([3]; 1 μg/ml): 19.3%
- Sterol content in cells, Ergost-5,7-dienol ([3]; 1 μg/ml): 0%
- Sterol content in cells, Ergosterol ([3]; 1 μg/ml): 71.3%
- Sterol content in cells, Lanosterol ([3]; 1 μg/ml): 9.4%
- MIC [4]: 4 µg/mL (≈ 5.86 µM)
- MIC [5]: 0.078 µg/mL (≈ 0.114 µM)
- MIC [6]: > 8 µg/mL
- MIC [7]: > 8 µg/mL
- MIC [8]: 6 µg/mL (≈ 8.79 µM)
- MIC [9]: > 8 µg/mL
- MIC50 [10]: 0.081 µg/mL (≈ 0.119 µM)
- IC50 [11]: 0.086 ng/mL (≈ 0.000126 µM)
- fold more potent than posaconazole, ergosterol production [12]: 2.6 fold
- fold more potent than voriconazole, ergosterol production [12]: 14 fold
- IC50 [12]: 0.0047 µg/mL and 6.9 nM
- MIC [13]: > 8 µg/mL
- MIC [14]: > 8 µg/mL
- MIC [15]: > 8 µg/mL
- MIC50 [16]: 0.5 µg/mL (≈ 0.732 µM)
- MIC [17]: 0.031 µg/mL (≈ 0.0454 µM)
- MIC [18]: > 8 µg/mL
- MIC [19]: > 8 µg/mL
- MIC [20]: > 8 µg/mL
- MIC ([21]; ATCC204305, with BSA): 0.0625 µg/mL (≈ 0.0915 µM)
- MIC ([21]; ATCC204305, without BSA): 0.25 µg/mL (≈ 0.366 µM)
- concentration up to which growth was not completely inhibited ([22]; 5 of the 13 posaconazole-resistant isolates, NW Mycology Centre): > 8 µg/mL
- fold more potent than voriconazole, based on the geometric mean ([22]; 96 clinical isolates): 2.5 fold
- MIC90 [22, 23]: 1 µg/mL (≈ 1.46 µM)
- MIC, Geometric mean [22, 23]: 0.17* μg/ml
- MIC50 ([22]; Aspergillus fumigatus): 0.125 µg/mL (≈ 0.183 µM)
- MIC90 ([22]; Aspergillus fumigatus): 1 µg/mL (≈ 1.46 µM)
- MIC [22, 24]: 0.17 µg/mL (≈ 0.249 µM)
- MIC [22, 25]: 0.125 µg/mL (≈ 0.183 µM)

Structure (SMILES): CC[C@@H]([C@H](C)O)n1ncn(-c2ccc(N3CCN(c4ccc(OC[C@@H]5CO[C@@](Cn6cncn6)(c6ccc(F)cc6F)C5)cc4)CC3)cc2)c1=O [Posaconazole, posaconazole]
- MIC [1]: 0.5 µg/mL (≈ 0.713 µM)
- MIC [2]: > 8 µg/mL
- Sterol content in cells, Eburicol ([3]; 0.0001 μg/ml): 2.2%
- Sterol content in cells, Ergost-5,7-dienol ([3]; 0.0001 μg/ml): 3.3%
- Sterol content in cells, Ergosterol ([3]; 0.0001 μg/ml): 94.5%
- Sterol content in cells, Lanosterol ([3]; 0.0001 μg/ml): 0%
- Sterol content in cells, Eburicol ([3]; 0.001 μg/ml): 5.9%
- Sterol content in cells, Ergost-5,7-dienol ([3]; 0.001 μg/ml): 3.9%
- Sterol content in cells, Ergosterol ([3]; 0.001 μg/ml): 87.2%
- Sterol content in cells, Lanosterol ([3]; 0.001 μg/ml): 3.0%
- Sterol content in cells, Eburicol ([3]; 0.01 μg/ml): 18.3%
- Sterol content in cells, Ergost-5,7-dienol ([3]; 0.01 μg/ml): 0%
- Sterol content in cells, Ergosterol ([3]; 0.01 μg/ml): 74.7%
- Sterol content in cells, Lanosterol ([3]; 0.01 μg/ml): 7.0%
- Sterol content in cells, Eburicol ([3]; 0.1 μg/ml): 23.4%
- Sterol content in cells, Ergost-5,7-dienol ([3]; 0.1 μg/ml): 0%
- Sterol content in cells, Ergosterol ([3]; 0.1 μg/ml): 67.8%
- Sterol content in cells, Lanosterol ([3]; 0.1 μg/ml): 8.8%
- Sterol content in cells, Eburicol ([3]; 1 μg/ml): 23.8%
- Sterol content in cells, Ergost-5,7-dienol ([3]; 1 μg/ml): 0%
- Sterol content in cells, Ergosterol ([3]; 1 μg/ml): 67.4%
- Sterol content in cells, Lanosterol ([3]; 1 μg/ml): 8.8%
- MIC [4]: 0.063 µg/mL (≈ 0.0899 µM)
- MIC [5]: 0.093 µg/mL (≈ 0.133 µM)
- MIC [6]: > 8 µg/mL
- MIC [7]: 0.25 µg/mL (≈ 0.357 µM)
- MIC [8]: 0.16 µg/mL (≈ 0.228 µM)
- MIC [9]: 0.25 µg/mL (≈ 0.357 µM)
- MIC50 [10]: 0.081 µg/mL (≈ 0.116 µM)
- IC50 [11]: 2.2 ng/mL (≈ 0.00314 µM)
- IC50 [12]: 0.012 µg/mL and 17 nM
- MIC [13]: > 8 µg/mL
- MIC [14]: 1 µg/mL (≈ 1.43 µM)
- MIC [15]: 0.5 µg/mL (≈ 0.713 µM)
- MIC50 [16]: 0.5 µg/mL (≈ 0.713 µM)
- MIC [17]: 0.031 µg/mL (≈ 0.0442 µM)
- MIC [18]: 0.13 µg/mL (≈ 0.186 µM)
- MIC [19]: 0.2 µg/mL (≈ 0.285 µM)
- MIC [20]: > 8 µg/mL
- MIC ([21]; ATCC204305, with BSA): 0.06 µg/mL (≈ 0.0856 µM)
- MIC ([21]; ATCC204305, without BSA): 0.03 µg/mL (≈ 0.0428 µM)
- MIC, Range [22, 23]: 0.016 to 2 µg/mL
- MIC50 ([22]; Aspergillus fumigatus): 0.063 µg/mL (≈ 0.0899 µM)
- MIC90 ([22]; Aspergillus fumigatus): 0.5 µg/mL (≈ 0.713 µM)
- MIC ([22]; Aspergillus fumigatus, ATCC204305, read-out: MIC, quality control strain): 0.25 µg/mL (≈ 0.357 µM)
- MIC [22, 24]: 0.1 µg/mL (≈ 0.143 µM)
- MIC [22, 25]: 0.032 µg/mL (≈ 0.0457 µM)
